Test results: patent US20160168540A1, “COMPOSITION FOR MAINTAINING PLATELET FUNCTION” (KYOTO UNIVERSITY, priority 2013, published 2016)
Entries after “also recorded” stand apart in the source; their conditions may differ. Read-outs that look alike come from different tables or passages of the source.

How the values were obtained:
[1] = molecular target: T1, TACE (ADAM17) (Homo sapiens, UniProt P78536); test: TACE (ADAM17) inhibition test; format: biochemical; details: fluorescent synthetic substrate, 37° C. for 1.5 hours
T1 construct: made in house; host or cells: mammalian cells or insect cells
T1 sequence (P78536 215-824): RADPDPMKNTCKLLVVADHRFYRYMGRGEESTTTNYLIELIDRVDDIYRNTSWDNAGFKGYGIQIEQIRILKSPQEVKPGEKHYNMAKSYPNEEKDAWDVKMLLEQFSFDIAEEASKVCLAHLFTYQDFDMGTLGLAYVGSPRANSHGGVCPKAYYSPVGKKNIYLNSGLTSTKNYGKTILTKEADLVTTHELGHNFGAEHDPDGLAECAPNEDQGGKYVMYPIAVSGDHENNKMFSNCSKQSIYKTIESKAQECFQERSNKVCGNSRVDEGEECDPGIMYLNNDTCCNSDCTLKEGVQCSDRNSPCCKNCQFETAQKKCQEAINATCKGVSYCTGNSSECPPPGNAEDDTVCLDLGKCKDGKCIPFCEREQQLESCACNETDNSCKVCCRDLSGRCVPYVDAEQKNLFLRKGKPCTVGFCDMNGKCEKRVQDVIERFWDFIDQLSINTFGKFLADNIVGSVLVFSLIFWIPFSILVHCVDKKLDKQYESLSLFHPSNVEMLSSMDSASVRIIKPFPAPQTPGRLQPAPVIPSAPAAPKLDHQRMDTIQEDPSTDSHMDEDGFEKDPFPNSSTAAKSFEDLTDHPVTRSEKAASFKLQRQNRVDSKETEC
Method in brief: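 Recombinant human TACE (mammalian or insect cell expressed) cleaves Nma-LAQAVRSSK(Dnp)-D-Arg-NH2 quenched substrate, 1.5 h at 37 °C. Fluorescence read at Ex 355/Em 460 nm; IC50 from inhibition vs no-compound control, binned A (<100 nM) or B (≥100 nM).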

[2] = system: iPS cell-derived platelets; test: Function-maintaining effect on iPS cell-derived platelets (flow cytometry of CD41a/CD42a/CD42b); format: cell-based, human
Experimental: Human iPS cells (hiPS cells), an iPS cell line (TkDA3-4) established at the University of Tokyo by introducing Oct4, Klf4, Sox2, and c-Myc into human-derived skin cells were cultured on inactivated mouse fibroblasts by treating with 10 μg/mL MitomycinC (manufactured by Wako Pure Chemical Industries Ltd.) in a medium mixture of Dulbecco's modified Eagle's medium and Ham's F-12 medium (manufactured by Sigma-Aldrich Co.) (mixing ratio 1:1) supplemented with 0.1 mM non-essential amino acid (manufactured by Invitrogen Corp.), PSG (100 U/mL penicillin, 100 U/mL streptomycin, and 2 mM L-glutamine) (manufactured by Invitrogen Corp.), 20% knockout serum replacement additive (KSR, manufactured by Invitrogen Corp.), 0.1 mM 2-mercaptoethanol (manufactured by Invitrogen Corp.), and 5 ng/ml basic fibroblast growth factor (bFGF, manufactured by Wako Pure Chemical Industries Ltd.). The cells were subcultured every 3 days, and those cells maintaining an undifferentiated state were used.
In addition, mouse embryo-derived fibroblasts, a C3H10T½ cell line (hereinafter also referred to as “10T½ cells”), purchased from RIKEN BioResource Center were cultured in basal medium Eagle (BME, manufactured by Invitrogen Corp.) supplemented with 10% fetal bovine serum (FBS) and PSG (100 U/mL penicillin, 100 U/mL streptomycin, and 2 mM L-glutamine) (manufactured by Invitrogen Corp.). Then, the 10T½ cells, which had been deactivated in advance by treating with MitomycinC, were seeded so as to give a cell count of 8×10^6/10-cm dish for use as feeder cells. […]
Next, the sac structures were detached from the dish, split open, passed through a 40-μm cell strainer (manufactured by BD), and then centrifuged at 1,500 rpm for 8 minutes to collect hematopoietic progenitor cells. […] Then, the number of cells was counted. […]

[3] = system: human peripheral blood-derived platelets; test: Function-maintaining effect on human peripheral blood-derived platelets (CCCP-enhanced GPIbα shedding); format: cell-based; details: 0.1 to 100 μM, with 100 μM of CCCP, 37° C. for 24 hours; listed as S-108470
Experimental: First, ACD was added in a ratio of 1/10 to human peripheral blood obtained by collecting blood, and centrifuged at 900 rpm for 10 minutes without a break. The supernatant obtained by the centrifugation was further centrifuged at 1,500 rpm for 10 minutes without a break, and then the supernatant was removed. The obtained precipitate was suspended in a Tyrode-HEPES buffer (not containing calcium). The number of platelets in the suspension was counted, and the platelet-containing suspension (Washed Platelet) was adjusted to have a fixed number (about 5×10^7) of platelets in 200 μL of the Tyrode-HEPES buffer (not containing calcium). Next, as described in Protocol 2 shown in FIG. 1, one of either S-108470 (0.1 to 100 μM), TACE inhibitor S (50 μM), or DMSO was added together with 100 μM of CCCP (carbonyl cyanide m-chlorophenyl hydrazone) to the washed platelets. After incubation at 37° C. for 24 hours, the number of CD42b (GPIbα) (+) cells in the CD41a (+) platelets was measured by flow cytometry. Note that, it is known that addition of CCCP enhances GPIbα shedding on the surface of platelets (see Bergmeier et al., Blood, 2003, vol. 102, pp. 4229-4235).

Row | SMILES | IC50 ([1]; read-out: TACE IC50) [nM] | further results
1 | O=C1NC(=O)C(Cn2ccccc2=O)(c2cc(F)c(F)c(F)c2)N1 (racemic) [Compound I-157] | < 100 | –
2 | Cc1cccn(CC2(c3ccc(Oc4cccc(F)c4)cc3)NC(=O)NC2=O)c1=O (racemic) [Compound I-84] | < 100 | –
3 | Cc1cccn(CC2(c3ccc(Cc4ccc(F)cc4)cc3)NC(=O)NC2=O)c1=O (racemic) [Compound I-41, 5-[4-(4-fluorobenzyl)phenyl]-5-[(3-methyl-2-oxopyridin-1(2H)-yl)methyl]imidazolidine-2,4-dione] | < 100 | –
4 | Cc1cccn(CC2(c3ccc(OC4CCCC4)cc3)NC(=O)NC2=O)c1=O (racemic) [Compound I-124] | < 100 | –
5 | COc1ccc(C2(Cn3ccccc3=O)NC(=O)NC2=O)cc1 (racemic) [Compound I-47, 5-(4-methoxyphenyl)-5-[(2-oxopyridin-1(2H)-yl)methyl]imidazolidine-2,4-dione] | < 100 | –
6 | O=C1NC(=O)C(Cn2ccccc2=O)(c2ccccc2)N1 (racemic) [Compound I-46, 5-[(2-oxopyridin-1(2H)-yl)methyl]-5-phenylimidazolidine-2,4-dione] | < 100 | –
7 | Cc1cccn(CC2(c3ccc(Oc4ccccc4)c(F)c3)NC(=O)NC2=O)c1=O (racemic) [Compound I-87] | < 100 | –
8 | Cc1cccn(CC2(c3ccc4c(c3)CCCC4)NC(=O)NC2=O)c1=O (racemic) [Compound I-77] | < 100 | –
9 | Cc1cccn(CC2(c3ccc(Cc4ccc(Cl)cc4)cc3)NC(=O)NC2=O)c1=O (racemic) [Compound I-130] | < 100 | –

Now from value to compound, other results behind:

Row | IC50 ([1]; read-out: TACE IC50) [nM] | SMILES | further results
10 | < 100 | Cc1cccn(CC2(c3ccc(F)c(F)c3)NC(=O)NC2=O)c1=O (single isomer, unassigned; (+)) [(+)-I-10, (+)-5-(3,4-difluorophenyl)-5-[(3-methyl-2-oxopyridin-1(2H)-yl)methyl]imidazolidine-2,4-dione] | IC50 ([1]; read-out: TACE inhibitory action, IC50 value): < 100 nM; number of obtained CD41a (+) CD42a (+) platelets compared with the medium control group ([2]; 10 and 30 μM, treated for 9 to 10 days): slightly larger; percentage of CD41a (+) CD42a (+) CD42b (+) platelets compared with the medium control group ([2]; 10 and 30 μM, treated for 9 to 10 days, listed as S-108470): significant increase; also recorded: increased the percentage of CD42b (+) cells; cytotoxicity / impact on platelet differentiation ([2]; culture system using iPS cells): without exhibiting cytotoxicity or having any impact on platelet differentiation; inhibition of GPIbα shedding (CD42b (GPIbα) (+) cells in the CD41a (+) platelets) [3]: inhibits GPIbα shedding in a concentration-dependent manner; also recorded: suppressed in a concentration-dependent manner
11 | < 100 | Cc1cccn(CC2(c3ccc(C#N)cc3)NC(=O)NC2=O)c1=O (racemic) [Compound I-3, 4-{4-[(3-methyl-2-oxopyridin-1(2H)-yl)methyl]-2,5-dioxoimidazolidine-4-yl}benzonitrile] | –
12 | < 100 | C=Cc1ccc(C2(Cn3cccc(C)c3=O)NC(=O)NC2=O)cc1 (racemic) [Compound I-43, 5-[(3-methyl-2-oxopyridin-1(2H)-yl)methyl]-5-(4-vinylphenyl)imidazolidine-2,4-dione] | –
13 | < 100 | Cc1cccn(CC2(c3ccc(C(C)(C)C)cc3)NC(=O)NC2=O)c1=O (racemic) [Compound I-17, 5-[4-(tert-butyl)phenyl]-5-[(3-methyl-2-oxopyridin-1(2H)-yl)methyl]imidazolidine-2,4-dione] | –
14 | < 100 | Cc1cc(C2(Cn3cccc(C)c3=O)NC(=O)NC2=O)ccc1F (racemic) [Compound I-30, 5-(4-fluoro-3-methylphenyl)-5-[(3-methyl-2-oxopyridin-1(2H)-yl)methyl]imidazolidine-2,4-dione] | –
